According to paper PMC10999543, “Identification of kinase modulators as host-directed therapeutics against intracellular methicillin-resistant Staphylococcus aureus” (Frontiers in Cellular and Infection Microbiology, 2024):
Where two headings read alike, the source gives them in different places.

Key:
HeLa cells = assay: Compound screen by flow cytometry: HeLa cell count as surrogate readout of cell viability (z-scoreHeLa); type: cell-based, human; conditions: for z-scoreHeLa mean: mean of 3 replicates; for z-scoreHeLa rep 1 / cell count rep 1: replicate 1; for z-scoreHeLa rep 2 / cell count rep 2: replicate 2; for z-scoreHeLa rep 3 / cell count rep 3: replicate 3
Method in brief: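 HeLa cells were infected with GFP-MRSA (mean MOI 6.8 ± 4.6) for 1 h, and extracellular bacteria were killed with 30 µg/ml gentamicin. Cells were then incubated overnight with kinase inhibitors in 5 µg/ml gentamicin, in triplicate against DMSO controls. Flow-cytometric cell count served as a viability surrogate, expressed as a plate z-score.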

intracellular MRSA = type: cell-based, Staphylococcus aureus; conditions: for z-scoreMRSA+ mean: mean of 3 replicates; for z-scoreMRSA+ rep 1 / %GFP+ rep 1: replicate 1; for z-scoreMRSA+ rep 2 / %GFP+ rep 2: replicate 2; for z-scoreMRSA+ rep 3 / %GFP+ rep 3: replicate 3
Method in brief: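 HeLa cells infected with GFP-MRSA (MOI ~6.8), gentamicin-cleared, then incubated overnight at 37°C with inhibitors plus 5 µg/ml gentamicin; DMSO as negative control, triplicates. Flow cytometry gave % GFP-positive cells and cell count (viability surrogate); hits by plate z-score (MRSA ≤ -2, HeLa count ≥ -3).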

[1] = PKIS compound screen, Yes/No call
[2] = PKIS compounds raw data, HeLa cell count
[3] = PKIS compound screen, Yes/No call (effect without cell death)
[4] = PKIS compounds raw data, MRSA-infected HeLa cells
[5] = PKIS compound screen raw data, HeLa cell count
[6] = PKIS compound screen, HeLa cell count
[7] = PKIS compound screen, Yes/No call on z-scoreHeLa
[8] = PKIS compound screen raw data, MRSA-infected HeLa cells
[9] = PKIS compound screen, MRSA-infected HeLa cells
[10] = PKIS compound screen, Yes/No call on z-scoreMRSA+
[11] = compound screen, HeLa cell count
[12] = Yes/No: effect without cell death
[13] = compound screen, MRSA-infected HeLa cells

## NS(=O)(=O)c1ccc(N/N=C2\C(=O)Nc3ccc(Cl)cc32)cc1 [GW280670X]
HeLa cells; [1]
  cell death: No
HeLa cells; PKIS compound screen
  z-scoreHeLa mean: 0.17
  z-scoreHeLa rep 1: -0.14
  z-scoreHeLa rep 2: 0.27
  z-scoreHeLa rep 3: 0.37
HeLa cells; [2]
  cell count rep 1: 4621
  cell count rep 2: 4629
  cell count rep 3: 7741
Intracellular MRSA; [1]
  effect: No
Intracellular MRSA; [3]
  hit: No
Intracellular MRSA; PKIS compound screen
  z-scoreMRSA+ mean: 6.79
  z-scoreMRSA+ rep 1: 7.09
  z-scoreMRSA+ rep 2: 11.94
  z-scoreMRSA+ rep 3: 1.34
Intracellular MRSA; [4]
  %GFP+ rep 1: 35.3%
  %GFP+ rep 2: 49.2%
  %GFP+ rep 3: 20.4%

## Cc1ccc(NC(=O)c2ccnc(N3CCN(C)CC3)c2)cc1-c1ccc(C(=O)NCC2CC2)cc1 [GW775604X]
HeLa cells; [5]
  cell count rep 1: 20638
  cell count rep 2: 17919
  cell count rep 3: 18503
HeLa cells; [6]
  z-scoreHeLa mean: -0.99
  z-scoreHeLa rep 1: -1.62
  z-scoreHeLa rep 2: -1.26
  z-scoreHeLa rep 3: -0.08
HeLa cells; [1]
  cell death: No
HeLa cells; [7]
  cell death: No
HeLa cells; PKIS compound screen
  z-scoreHeLa mean: 0.09
  z-scoreHeLa rep 1: -0.44
  z-scoreHeLa rep 2: 1.03
  z-scoreHeLa rep 3: -0.32
HeLa cells; [2]
  cell count rep 1: 5307
  cell count rep 2: 7562
  cell count rep 3: 5095
Intracellular MRSA; [8]
  %GFP+ rep 1: 22.9%
  %GFP+ rep 2: 25.3%
  %GFP+ rep 3: 27.3%
Intracellular MRSA; [9]
  z-scoreMRSA+ mean: 1.46
  z-scoreMRSA+ rep 1: 1.10
  z-scoreMRSA+ rep 2: 1.61
  z-scoreMRSA+ rep 3: 1.66
Intracellular MRSA; [1]
  effect: No
Intracellular MRSA; [3]
  hit: No
Intracellular MRSA; [10]
  effect: No
Intracellular MRSA; PKIS compound screen
  z-scoreMRSA+ mean: -0.35
  z-scoreMRSA+ rep 1: -0.34
  z-scoreMRSA+ rep 2: -0.43
  z-scoreMRSA+ rep 3: -0.27
Intracellular MRSA; [4]
  %GFP+ rep 1: 25.3%
  %GFP+ rep 2: 23.8%
  %GFP+ rep 3: 25.8%

## Cc1ccc(C(=O)Nc2ccc(Nc3ccnc4cc(-c5nccs5)ccc34)cc2O)cc1 [GW494702A]
HeLa cells; [1]
  cell death: No
HeLa cells; PKIS compound screen
  z-scoreHeLa mean: 0.98
  z-scoreHeLa rep 1: 0.32
  z-scoreHeLa rep 2: 1.13
  z-scoreHeLa rep 3: 1.50
HeLa cells; [2]
  cell count rep 1: 6577
  cell count rep 2: 7707
  cell count rep 3: 7965
Intracellular MRSA; [1]
  effect: No
Intracellular MRSA; [3]
  hit: No
Intracellular MRSA; PKIS compound screen
  z-scoreMRSA+ mean: -1.32
  z-scoreMRSA+ rep 1: -1.18
  z-scoreMRSA+ rep 2: -1.22
  z-scoreMRSA+ rep 3: -1.55
Intracellular MRSA; [4]
  %GFP+ rep 1: 21.0%
  %GFP+ rep 2: 19.7%
  %GFP+ rep 3: 18.9%

## Cc1cc(N2Cc3ccccc3C2)nc(Nc2ccc(S(=O)(=O)N3CCOCC3)cc2)n1 [GSK1669917A]
HeLa cells; [5]
  cell count rep 1: 5559
  cell count rep 2: 4564
  cell count rep 3: 5979
HeLa cells; Yes/No call from z-scoreHeLa
  cell death: No
HeLa cells; [11]
  z-scoreHeLa mean: 0.51
  z-scoreHeLa rep 1: 0.87
  z-scoreHeLa rep 2: 0.20
  z-scoreHeLa rep 3: 0.47
Intracellular MRSA; [8]
  %GFP+ rep 1: 24.7%
  %GFP+ rep 2: 22.0%
  %GFP+ rep 3: 22.0%
Intracellular MRSA; Yes/No call from z-scoreMRSA+
  effect: No
Intracellular MRSA; [12]
  hit: No
Intracellular MRSA; [13]
  z-scoreMRSA+ mean: -0.11
  z-scoreMRSA+ rep 1: -0.13
  z-scoreMRSA+ rep 2: -0.15
  z-scoreMRSA+ rep 3: -0.06

## COc1ccc(COc2ccc(Cc3cnc(N)nc3N)cc2OC)cc1 [GW632580X]
HeLa cells; [5]
  cell count rep 1: 16746
  cell count rep 2: 34970
  cell count rep 3: 43497
HeLa cells; [6]
  z-scoreHeLa mean: -0.0017
  z-scoreHeLa rep 1: -0.51
  z-scoreHeLa rep 2: 0.0341
  z-scoreHeLa rep 3: 0.47
HeLa cells; [7]
  cell death: No
Intracellular MRSA; [8]
  %GFP+ rep 1: 19.0%
  %GFP+ rep 2: 19.0%
  %GFP+ rep 3: 21.7%
Intracellular MRSA; [9]
  z-scoreMRSA+ mean: 0.36
  z-scoreMRSA+ rep 1: 0.36
  z-scoreMRSA+ rep 2: 0.14
  z-scoreMRSA+ rep 3: 0.58
Intracellular MRSA; [3]
  hit: No
Intracellular MRSA; [10]
  effect: No

## Nc1ncc(-c2ccncc2)c2scc(-c3ccc4c(c3)CCN4C(=O)Cc3ccccc3)c12 [GSK2592465A]
HeLa cells; [5]
  cell count rep 1: 4912
  cell count rep 2: 4633
  cell count rep 3: 5392
HeLa cells; Yes/No call from z-scoreHeLa
  cell death: No
HeLa cells; [11]
  z-scoreHeLa mean: 0.25
  z-scoreHeLa rep 1: 0.40
  z-scoreHeLa rep 2: 0.26
  z-scoreHeLa rep 3: 0.10
Intracellular MRSA; [8]
  %GFP+ rep 1: 23.8%
  %GFP+ rep 2: 25.0%
  %GFP+ rep 3: 22.8%
Intracellular MRSA; Yes/No call from z-scoreMRSA+
  effect: No
Intracellular MRSA; [12]
  hit: No
Intracellular MRSA; [13]
  z-scoreMRSA+ mean: 0.14
  z-scoreMRSA+ rep 1: -0.34
  z-scoreMRSA+ rep 2: 0.58
  z-scoreMRSA+ rep 3: 0.18

## CC(C)S(=O)(=O)N1CCN(Cc2ccc3c(c2)nc(NC(=O)c2ccsc2)n3C[C@H](O)c2ccccc2)CC1 [GW635815X]
HeLa cells; [5]
  cell count rep 1: 31634
  cell count rep 2: 26865
  cell count rep 3: 24254
HeLa cells; [6]
  z-scoreHeLa mean: 0.52
  z-scoreHeLa rep 1: 0.24
  z-scoreHeLa rep 2: 0.27
  z-scoreHeLa rep 3: 1.04
HeLa cells; [7]
  cell death: No
Intracellular MRSA; [8]
  %GFP+ rep 1: 12.8%
  %GFP+ rep 2: 14.2%
  %GFP+ rep 3: 14.5%
Intracellular MRSA; [9]
  z-scoreMRSA+ mean: -1.62
  z-scoreMRSA+ rep 1: -1.60
  z-scoreMRSA+ rep 2: -1.42
  z-scoreMRSA+ rep 3: -1.84
Intracellular MRSA; [3]
  hit: No
Intracellular MRSA; [10]
  effect: No

## Nc1ncnc2occ(-c3ccc(NC(=O)Nc4cc(C(F)(F)F)ccc4F)cc3)c12 [GW770249X]
HeLa cells; [2]
  cell count rep 1: 2336
  cell count rep 2: 2249
  cell count rep 3: 3259
HeLa cells; Yes/No call from z-scoreHeLa
  cell death: No
HeLa cells; [11]
  z-scoreHeLa mean: -1.83
  z-scoreHeLa rep 1: -2.21
  z-scoreHeLa rep 2: -1.53
  z-scoreHeLa rep 3: -1.77
Intracellular MRSA; [4]
  %GFP+ rep 1: 10.7%
  %GFP+ rep 2: 11.5%
  %GFP+ rep 3: 11.5%
Intracellular MRSA; Yes/No call from z-scoreMRSA+
  effect: No
Intracellular MRSA; [12]
  hit: No
Intracellular MRSA; [13]
  z-scoreMRSA+ mean: -0.92
  z-scoreMRSA+ rep 1: -0.79
  z-scoreMRSA+ rep 2: -0.67
  z-scoreMRSA+ rep 3: -1.30

## c1ccc(-c2ccc3c(Nc4ccc5[nH]ccc5c4)ccnc3c2)nc1 [GW440138A]
HeLa cells; [1]
  cell death: No
HeLa cells; PKIS compound screen
  z-scoreHeLa mean: 1.19
  z-scoreHeLa rep 1: 0.89
  z-scoreHeLa rep 2: 1.20
  z-scoreHeLa rep 3: 1.48
HeLa cells; [2]
  cell count rep 1: 7521
  cell count rep 2: 7813
  cell count rep 3: 7928
Intracellular MRSA; [1]
  effect: No
Intracellular MRSA; [3]
  hit: No
Intracellular MRSA; PKIS compound screen
  z-scoreMRSA+ mean: 1.90
  z-scoreMRSA+ rep 1: 1.55
  z-scoreMRSA+ rep 2: 2.03
  z-scoreMRSA+ rep 3: 2.14
Intracellular MRSA; [4]
  %GFP+ rep 1: 35.0%
  %GFP+ rep 2: 36.6%
  %GFP+ rep 3: 38.8%

## Cc1c(O)cccc1Nc1ccnc2ccc(C(F)(F)F)cc12 [GW466413A]
HeLa cells; [5]
  cell count rep 1: 3244
  cell count rep 2: 2982
  cell count rep 3: 4313
HeLa cells; Yes/No call from z-scoreHeLa
  cell death: No
HeLa cells; [11]
  z-scoreHeLa mean: -0.80
  z-scoreHeLa rep 1: -0.80
  z-scoreHeLa rep 2: -1.02
  z-scoreHeLa rep 3: -0.58
Intracellular MRSA; [8]
  %GFP+ rep 1: 22.3%
  %GFP+ rep 2: 22.8%
  %GFP+ rep 3: 19.9%
Intracellular MRSA; Yes/No call from z-scoreMRSA+
  effect: No
Intracellular MRSA; [12]
  hit: No
Intracellular MRSA; [13]
  z-scoreMRSA+ mean: -0.45
  z-scoreMRSA+ rep 1: -0.69
  z-scoreMRSA+ rep 2: 0.0454
  z-scoreMRSA+ rep 3: -0.69
